Results on nine compounds are retold here after ChEMBL document CHEMBL1142906, “Structure-activity relationships of novel piperazines as antagonists for the melanocortin-4 receptor” (Bioorg Med Chem, 2007).

The target in assay [1] is Delta-type opioid receptor (Rattus norvegicus, UniProt P33533). The assay is described as follows: Displacement of [3H]DPDPE from delta opiate receptor in rat brain membranes. The format is cell membranes.
Assay [2] addresses Norepinephrine transporter (Rattus norvegicus, UniProt Q9WTR4). The assay is described as follows: Displacement of [3H]nisoxetine from NET in rat cortical membranes. It counts as cell membranes, Membrane.
For another assay, the target named is Melanocortin receptor 4 (Homo sapiens, UniProt P32245). The assay is described as follows: Displacement of [125I]Nle4-D-Phe7-alpha-MSH from human MC4 receptor expressed in COS1 cells. The format is cell-based, COS-1.
Sequence of Melanocortin receptor 4 (P32245 whole entry): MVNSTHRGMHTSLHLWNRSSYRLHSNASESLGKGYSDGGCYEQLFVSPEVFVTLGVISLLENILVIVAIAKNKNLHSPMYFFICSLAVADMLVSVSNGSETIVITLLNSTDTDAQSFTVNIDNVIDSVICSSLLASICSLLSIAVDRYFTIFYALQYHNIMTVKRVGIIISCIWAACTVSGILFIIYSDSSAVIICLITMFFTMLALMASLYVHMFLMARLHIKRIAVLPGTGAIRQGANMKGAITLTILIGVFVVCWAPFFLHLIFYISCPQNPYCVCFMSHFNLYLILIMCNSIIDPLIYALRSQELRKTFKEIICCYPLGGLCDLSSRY
Assay [3] concerns the target T1, Adrenergic receptor alpha-1 (Rattus norvegicus, UniProt P15823+P23944+P43140).
T1 sequence (P15823 whole entry): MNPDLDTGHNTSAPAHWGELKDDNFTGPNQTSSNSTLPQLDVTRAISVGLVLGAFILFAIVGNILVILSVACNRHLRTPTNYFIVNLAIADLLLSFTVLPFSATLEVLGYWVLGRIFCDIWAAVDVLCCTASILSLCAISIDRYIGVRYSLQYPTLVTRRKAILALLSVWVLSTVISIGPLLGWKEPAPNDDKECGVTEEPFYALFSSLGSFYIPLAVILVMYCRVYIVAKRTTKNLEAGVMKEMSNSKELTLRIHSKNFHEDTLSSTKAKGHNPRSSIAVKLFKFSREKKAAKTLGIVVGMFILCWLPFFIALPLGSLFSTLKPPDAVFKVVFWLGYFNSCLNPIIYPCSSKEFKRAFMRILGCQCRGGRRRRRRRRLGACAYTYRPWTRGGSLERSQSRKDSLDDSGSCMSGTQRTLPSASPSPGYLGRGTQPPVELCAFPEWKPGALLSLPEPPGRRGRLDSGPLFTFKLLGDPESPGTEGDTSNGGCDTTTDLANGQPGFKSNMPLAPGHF
T1 sequence (P23944 whole entry): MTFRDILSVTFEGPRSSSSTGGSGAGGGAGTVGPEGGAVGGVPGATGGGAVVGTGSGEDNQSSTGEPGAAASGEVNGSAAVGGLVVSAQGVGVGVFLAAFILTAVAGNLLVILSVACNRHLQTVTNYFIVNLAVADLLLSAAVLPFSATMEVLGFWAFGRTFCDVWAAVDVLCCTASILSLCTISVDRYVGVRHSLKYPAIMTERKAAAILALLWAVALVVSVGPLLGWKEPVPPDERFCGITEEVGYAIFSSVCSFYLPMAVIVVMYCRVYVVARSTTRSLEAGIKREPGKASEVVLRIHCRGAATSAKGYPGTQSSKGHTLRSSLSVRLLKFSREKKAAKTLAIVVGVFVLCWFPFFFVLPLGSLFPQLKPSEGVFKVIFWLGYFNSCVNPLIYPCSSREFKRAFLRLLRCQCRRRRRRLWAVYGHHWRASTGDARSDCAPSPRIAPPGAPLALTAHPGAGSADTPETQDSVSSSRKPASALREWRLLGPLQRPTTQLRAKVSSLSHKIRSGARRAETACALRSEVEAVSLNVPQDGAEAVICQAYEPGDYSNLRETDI
T1 sequence (P43140 whole entry): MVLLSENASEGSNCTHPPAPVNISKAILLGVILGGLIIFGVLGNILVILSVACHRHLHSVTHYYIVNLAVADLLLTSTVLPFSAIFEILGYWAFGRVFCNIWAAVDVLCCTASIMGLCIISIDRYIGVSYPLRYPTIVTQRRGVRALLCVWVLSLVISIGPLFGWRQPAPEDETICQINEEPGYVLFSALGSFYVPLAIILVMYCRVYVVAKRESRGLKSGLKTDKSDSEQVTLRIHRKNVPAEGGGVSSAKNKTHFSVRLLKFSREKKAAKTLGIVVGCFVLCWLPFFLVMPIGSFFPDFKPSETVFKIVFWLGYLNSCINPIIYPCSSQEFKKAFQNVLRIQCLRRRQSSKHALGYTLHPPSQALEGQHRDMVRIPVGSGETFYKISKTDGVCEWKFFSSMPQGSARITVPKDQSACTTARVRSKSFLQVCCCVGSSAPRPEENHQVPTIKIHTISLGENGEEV
The assay is described as follows: Displacement of [3H]prazosin from adrenergic alpha-1 receptor in rat cortical membranes. The format is cell membranes, Membrane. (In general: Loss of bound radioactivity is the signal in a displacement assay; it reports binding, not function.)

In a further assay the target is Histamine H1 receptor (Rattus norvegicus, UniProt P31390). The assay is described as follows: Displacement of [3H]pyrilamine from histamine H1 receptor in rat brain membranes. It counts as cell membranes.
Sequence of Histamine H1 receptor (P31390 whole entry): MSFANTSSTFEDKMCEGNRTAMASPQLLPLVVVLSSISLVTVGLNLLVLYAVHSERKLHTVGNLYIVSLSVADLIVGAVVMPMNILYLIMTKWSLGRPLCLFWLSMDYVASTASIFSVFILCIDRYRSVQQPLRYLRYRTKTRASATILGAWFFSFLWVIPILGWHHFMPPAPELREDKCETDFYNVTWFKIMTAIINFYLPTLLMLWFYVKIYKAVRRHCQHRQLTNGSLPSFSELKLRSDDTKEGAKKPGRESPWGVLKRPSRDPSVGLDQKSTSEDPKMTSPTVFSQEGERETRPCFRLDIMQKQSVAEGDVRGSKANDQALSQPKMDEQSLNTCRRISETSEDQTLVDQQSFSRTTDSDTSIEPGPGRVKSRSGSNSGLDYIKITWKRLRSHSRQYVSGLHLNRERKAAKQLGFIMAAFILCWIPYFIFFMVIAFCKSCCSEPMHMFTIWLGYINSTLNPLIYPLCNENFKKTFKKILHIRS
Another assay addresses D(2) dopamine receptor (Rattus norvegicus, UniProt P61169). As to the kind of experiment: Displacement of [3H]raclopride from dopamine D2 receptor in rat striatal membranes. It counts as cell membranes, Membrane.
The target in the next assay is Mu-type opioid receptor (Rattus norvegicus, UniProt P33535). As to the kind of experiment: Displacement of [3H]DAMGO from mu opiate receptor in rat brain membranes. The format is cell membranes.
Sequence of Mu-type opioid receptor (P33535 whole entry): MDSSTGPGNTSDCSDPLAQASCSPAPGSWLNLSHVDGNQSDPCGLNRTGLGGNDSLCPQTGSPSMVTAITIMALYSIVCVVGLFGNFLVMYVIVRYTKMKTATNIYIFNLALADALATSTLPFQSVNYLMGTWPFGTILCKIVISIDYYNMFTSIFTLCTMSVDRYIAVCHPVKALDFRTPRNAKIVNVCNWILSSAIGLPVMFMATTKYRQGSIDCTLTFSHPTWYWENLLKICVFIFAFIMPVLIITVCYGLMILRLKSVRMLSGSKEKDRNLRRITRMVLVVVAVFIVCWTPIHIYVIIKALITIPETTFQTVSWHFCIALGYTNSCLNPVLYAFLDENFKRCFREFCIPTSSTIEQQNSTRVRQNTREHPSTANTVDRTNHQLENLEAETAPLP
The target in assay [4] is Sodium-dependent serotonin transporter (Rattus norvegicus, UniProt P31652). As to the kind of experiment: Displacement of [3H][…] from SET in rat cortical membranes. The format is cell membranes, Membrane.
Sequence of Sodium-dependent serotonin transporter (P31652 whole entry): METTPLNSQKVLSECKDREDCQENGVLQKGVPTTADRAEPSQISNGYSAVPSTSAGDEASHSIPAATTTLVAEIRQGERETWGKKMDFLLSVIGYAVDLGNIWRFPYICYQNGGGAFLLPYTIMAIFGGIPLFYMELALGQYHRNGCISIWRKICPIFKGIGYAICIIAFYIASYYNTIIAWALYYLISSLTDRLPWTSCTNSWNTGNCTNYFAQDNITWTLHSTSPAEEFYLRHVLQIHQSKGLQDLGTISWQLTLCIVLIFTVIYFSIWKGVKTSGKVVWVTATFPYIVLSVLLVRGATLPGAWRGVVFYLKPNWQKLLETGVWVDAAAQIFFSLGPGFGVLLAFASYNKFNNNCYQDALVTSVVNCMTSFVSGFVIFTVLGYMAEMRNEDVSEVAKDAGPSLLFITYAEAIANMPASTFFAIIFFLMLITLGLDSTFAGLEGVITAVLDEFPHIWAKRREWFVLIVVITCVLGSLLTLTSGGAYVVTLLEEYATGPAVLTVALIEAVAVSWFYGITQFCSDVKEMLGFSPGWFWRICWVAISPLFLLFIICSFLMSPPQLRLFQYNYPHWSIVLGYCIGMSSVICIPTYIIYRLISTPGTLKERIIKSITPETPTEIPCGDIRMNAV

Structures are written as SMILES. Where only a bound is given, the exact number is not on record here.

Sequence of D(2) dopamine receptor (P61169 whole entry): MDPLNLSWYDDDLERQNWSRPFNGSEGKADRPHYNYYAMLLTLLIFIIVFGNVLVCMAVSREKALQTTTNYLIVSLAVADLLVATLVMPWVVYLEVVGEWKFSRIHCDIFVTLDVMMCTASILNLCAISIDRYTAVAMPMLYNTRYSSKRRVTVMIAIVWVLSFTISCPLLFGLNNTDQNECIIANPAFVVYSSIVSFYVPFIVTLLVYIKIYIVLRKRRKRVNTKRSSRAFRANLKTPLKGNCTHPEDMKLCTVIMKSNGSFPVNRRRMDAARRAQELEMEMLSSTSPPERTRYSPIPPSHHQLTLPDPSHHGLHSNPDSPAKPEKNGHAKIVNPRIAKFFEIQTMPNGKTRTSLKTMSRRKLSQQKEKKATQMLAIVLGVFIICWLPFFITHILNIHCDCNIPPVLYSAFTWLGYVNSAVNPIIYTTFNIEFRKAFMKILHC
Sequence of Delta-type opioid receptor (P33533 whole entry): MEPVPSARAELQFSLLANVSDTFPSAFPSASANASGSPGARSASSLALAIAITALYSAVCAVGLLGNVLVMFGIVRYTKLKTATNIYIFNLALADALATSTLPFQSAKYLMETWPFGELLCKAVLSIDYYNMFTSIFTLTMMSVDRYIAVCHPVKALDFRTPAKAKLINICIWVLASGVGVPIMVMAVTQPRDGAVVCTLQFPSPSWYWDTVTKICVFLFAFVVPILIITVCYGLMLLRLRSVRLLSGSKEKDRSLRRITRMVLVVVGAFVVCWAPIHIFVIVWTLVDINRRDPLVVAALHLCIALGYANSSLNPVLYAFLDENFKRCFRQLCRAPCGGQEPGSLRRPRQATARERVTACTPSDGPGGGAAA
Sequence of Norepinephrine transporter (Q9WTR4 whole entry): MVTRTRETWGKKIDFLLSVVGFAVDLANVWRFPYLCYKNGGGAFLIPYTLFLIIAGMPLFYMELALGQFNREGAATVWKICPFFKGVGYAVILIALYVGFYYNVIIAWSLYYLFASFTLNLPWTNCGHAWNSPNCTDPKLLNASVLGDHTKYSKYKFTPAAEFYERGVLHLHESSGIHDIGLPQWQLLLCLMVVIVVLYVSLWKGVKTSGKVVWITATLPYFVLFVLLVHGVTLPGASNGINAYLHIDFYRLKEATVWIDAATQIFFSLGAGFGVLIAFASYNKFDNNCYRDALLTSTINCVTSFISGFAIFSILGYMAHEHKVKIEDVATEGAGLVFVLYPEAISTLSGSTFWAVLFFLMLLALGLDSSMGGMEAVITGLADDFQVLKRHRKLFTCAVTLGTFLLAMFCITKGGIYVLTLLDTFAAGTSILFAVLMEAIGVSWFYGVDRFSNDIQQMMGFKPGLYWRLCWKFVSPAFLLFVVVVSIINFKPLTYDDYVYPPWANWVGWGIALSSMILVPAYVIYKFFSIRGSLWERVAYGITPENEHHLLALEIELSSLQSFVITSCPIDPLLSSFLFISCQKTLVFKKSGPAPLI

As a reminder, the IC50 is the concentration that gives 50% inhibition. Low values mean greater potency, high ones weaker potency. In the case of `CC(C)N1CCN(C(CN2CCN(CCCc3ccccc3-c3ccccc3)CC2)c2ccc(F)cc2)CC1` (racemic), the IC50 is greater than 10000 nM in assay [1]; 671 nM in assay [2]; 11.2 nM on Melanocortin receptor 4; greater than 1000 nM in assay [3]; greater than 1000 nM on Histamine H1 receptor; 645 nM at D(2) dopamine receptor. The figures for the IC50 (on Mu-type opioid receptor; in assay [4]) were greater than 10000 nM and 3130 nM, respectively.
As for `CC(C)N1CCN(C(CN2CCN(CCCc3cccc(F)c3-c3ccccc3)CC2)c2ccc(F)cc2)CC1` (racemic), the IC50 is greater than 10000 nM in assay [1]; 2830 nM in assay [2]; 23 nM at Melanocortin receptor 4; greater than 1000 nM in assay [3]; greater than 1000 nM at Histamine H1 receptor; greater than 1000 nM on D(2) dopamine receptor. The IC50 on Mu-type opioid receptor is greater than 10000 nM; in assay [4] it was 3400 nM.
Regarding `CC(C)N1CCN(C(CN2CCN(CCCc3ccc(F)cc3-c3ccccc3)CC2)c2ccc(F)cc2)CC1` (racemic), the IC50 was greater than 10000 nM in assay [1]; 1850 nM in assay [2]; 33 nM on Melanocortin receptor 4; greater than 1000 nM in assay [3]; greater than 1000 nM at Histamine H1 receptor; greater than 1000 nM on D(2) dopamine receptor. In addition, the IC50 on Mu-type opioid receptor is greater than 10000 nM; in assay [4] it was 1370 nM.
For `CC(C)N1CCN(C(CN2CCN(CCCc3cc(F)ccc3-c3ccccc3)CC2)c2ccc(F)cc2)CC1` (racemic), the half-inhibitory concentration (IC50) in assay [1] was greater than 10000 nM; in assay [2], 369 nM; at Melanocortin receptor 4 it was 27.1 nM; in assay [3] it was greater than 1000 nM; at Histamine H1 receptor it was greater than 1000 nM; on D(2) dopamine receptor, 721 nM. The IC50 was greater than 10000 nM at Mu-type opioid receptor and 1170 nM in assay [4].
As to `CC(C)N1CCN(C(CN2CCN(CCCc3c(F)cccc3-c3ccccc3)CC2)c2ccc(F)cc2)CC1` (racemic), the IC50 in assay [1] is greater than 10000 nM; in assay [2], 206 nM; on Melanocortin receptor 4, 11.7 nM; in assay [3] it was greater than 1000 nM; at Histamine H1 receptor it was greater than 1000 nM; on D(2) dopamine receptor, greater than 1000 nM. The figures for the IC50 (at Mu-type opioid receptor; in assay [4]) were greater than 10000 nM and 1460 nM, respectively.
Consider `CC(C)N1CCN(C(CN2CCN(CCCc3c(Cl)cccc3-c3ccccc3)CC2)c2ccc(F)cc2)CC1` (racemic), for which the IC50 in assay [1] is greater than 10000 nM; in assay [2] it was 1770 nM; at Melanocortin receptor 4 it was 27.1 nM; in assay [3] it was greater than 1000 nM; on Histamine H1 receptor, greater than 1000 nM; on D(2) dopamine receptor, greater than 1000 nM. Also, the values for the IC50 (on Mu-type opioid receptor; in assay [4]) were greater than 10000 nM and 1290 nM, respectively.
Regarding `Cc1cccc(-c2ccccc2)c1CCCN1CCN(CC(c2ccc(F)cc2)N2CCN(C(C)C)CC2)CC1` (racemic), the IC50 in assay [1] is greater than 10000 nM; in assay [2] it was 2400 nM; at Melanocortin receptor 4 it was 24.3 nM; in assay [3], greater than 1000 nM; at Histamine H1 receptor it was greater than 1000 nM; on D(2) dopamine receptor it was greater than 1000 nM. Moreover, the values for the IC50 (at Mu-type opioid receptor; in assay [4]) were greater than 10000 nM and 4960 nM, respectively.
Regarding `CC(C)N1CCN(C(CN2CCN(CCCc3ccccc3-c3cccc(F)c3)CC2)c2ccc(F)cc2)CC1` (racemic), the IC50 in assay [1] is greater than 10000 nM; in assay [2], 226 nM; at Melanocortin receptor 4, 23.6 nM; in assay [3], greater than 1000 nM; at Histamine H1 receptor, greater than 1000 nM; at D(2) dopamine receptor it was greater than 1000 nM. The IC50 was greater than 10000 nM at Mu-type opioid receptor and 2110 nM in assay [4].
With `CC(C)N1CCN(C(CN2CCN(CCCc3ccccc3-c3ccc(F)cc3)CC2)c2ccc(F)cc2)CC1` (racemic), the 50% inhibitory concentration (IC50) is greater than 10000 nM in assay [1]; 290 nM in assay [2]; 10.5 nM on Melanocortin receptor 4; greater than 1000 nM in assay [3]; greater than 1000 nM at Histamine H1 receptor; 721 nM at D(2) dopamine receptor. The IC50 at Mu-type opioid receptor is greater than 10000 nM; in assay [4] it was 1340 nM.
